The test system of test [1] is T cells. Put plainly: TRAC LNP editing and GFP insertion in activated T cells with DNA-PK inhibitors, flow cytometry. Particulars: day 5 post-edit; for Mean % CD3^−/GFP+ Cells (n = 3): GFP positive of the CD3 negative T cells; for Mean % CD3^− Cells (n = 3): TRAC LNP + GFP AAV.
The subject of test [2] is T cells. In words: Fold T cell expansion following TRBC/TRAC editing with WT1-TCR AAV and DNA-PK inhibitors. The conditions noted are these: Table 4.
For test [3], the system named is K562-luc2 cells transduced to express HLA-A*02:01. In words: WT1 TCR T cell mediated cytotoxicity, luciferase assay. Particulars: WT1-T cells (HD1) engineered with inhibitor, K562-HLA-A*02:01, 48h, duplicate values. The test is classed as cell-based, human. On the procedure:
(§1) The ability of WT1-TCR T cells engineered from donors 007HD and 008HD to kill hematological cancer cells expressing natural levels of WT1 and release cytokines was evaluated. TCR KO cells generated as described above but without TRAC/AAV addition were used as a negative, non-killing control. Briefly, T cells were co-cultured with luciferase expressing 697 ALL cells (697-luc2), or K562-luc2 cells transduced to express HLA-A*02:01 (K5692-HLA-A*02:01-luc2) at various effector to target (E:T) ratios (2:1, 1:1, 0.5:1) in TCEM without the addition of IL-2, IL-7, or IL-15. […] After 24h of co-culture, supernatants from the 2:1 E:T ratio group were harvested and used in an MSD U/R-PLEX assay to quantify IL-2, TNFα, IFNγ, and Granzyme B following manufacturers protocol (Mesoscale Discovery). After 48h of co-culture luciferase activity was quantified using the Bright-GLO Luciferase Assay System (Promega) in relative luminescence units (RLU). Percent specific lysis was determined using the formula:
(§2) % Specific Lysis=100−((RLU[Experimental Well]/RLU[Target Only Well])*100)

In a further test the test system is 697 ALL cells (697-luc2). Described as above. The conditions noted are these: WT1-T cells (HD1) engineered with inhibitor, 48h, duplicate values. It counts as cell-based, human. The procedure: as §1, §2

Here are results for seven molecules from US20240300977A1, “INHIBITORS OF DNA-DEPENDENT PROTEIN KINASE AND COMPOSITIONS AND USES THEREOF” (Intellia Therapeutics, Inc., priority 2021, published 2024).

Values joined by “and” are separate entries in the source; they are usually repeats but may differ in a detail not shown here. Equal values may be shown once.

`Cc1cc2ncnn2cc1Nc1ncc2c(n1)n(C1CC(O)C1)c(=O)n2C` (centres unmarked) [Compound 5, 9-(3-hydroxycyclobutyl)-7-methyl-2-((7-methyl-[1,2,4]triazolo[1,5-a]pyridin-6-yl)amino)-7,9-dihydro-8H-purin-8-one]: the “Mean % CD3^−/GFP+ Cells (n = 3)” value is recorded as 53.00% with T cells [1] (compound 0.0625 uM) and 78.97% in the test on T cells [1] (compound 1 uM).

As for `Cc1cc2ncnn2cc1Nc1cc2c(cn1)n(C)c(=O)n2C1CCOCC1` [Compound 6, 3-methyl-6-((7-methyl-[1,2,4]triazolo[1,5-a]pyridin-6-yl)amino)-1-(tetrahydro-2H-pyran-4-yl)-1,3-dihydro-2H-imidazo[4,5-c]pyridin-2-one], in the test with T cells [1] (compound 0.0625 uM), the “Mean % CD3^−/GFP+ Cells (n = 3)” value worked out at 35.10% and the “Mean % CD3^− Cells (n = 3)” value amounted to 33.87%. Further, in the test with T cells [1] (compound 1 uM), the “Mean % CD3^−/GFP+ Cells (n = 3)” value was 74.40% and the “Mean % CD3^− Cells (n = 3)” value is on record as 58.30%. Besides, in the test on T cells [2], the “impact of T cell expansion by DNA-PK treatment” value (shortened to “impact of T cell expansion”) is given as “no impact”.

Consider `CCn1c(=O)n(C2CCOCC2)c2nc(Nc3cn4ncnc4cc3C)ncc21` [Compound 2, 7-ethyl-2-((7-methyl-[1,2,4]triazolo[1,5-a]pyridin-6-yl)amino)-9-(tetrahydro-2H-pyran-4-yl)-7,9-dihydro-8H-purin-8-one], for which the “Mean % CD3^−/GFP+ Cells (n = 3)” value with T cells [1] (compound 0.0625 uM) is reported as 47.93%; with T cells [1] (compound 1 uM), 79.40%.

In the case of `Cc1cc2ncnn2cc1Nc1ncc2c(n1)n(C1CCOCC1)c(=O)n2C` [Compound 1, 7-methyl-2-((7-methyl-[1,2,4]triazolo[1,5-a]pyridin-6-yl)amino)-9-(tetrahydro-2H-pyran-4-yl)-7,9-dihydro-8H-purin-8-one], the Percent specific lysis in test [3] (E:T 0.5, donor 007HD) is 37.10% and 36.80%; in test [3] (E:T 0.5, donor 008HD) it was 56.76% and 58.18%; in test [3] (E:T 1, donor 007HD), 69.32% and 70.95%; in test [3] (E:T 1, donor 008HD) it was 83.56% and 79.54%; in test [3] (E:T 2, donor 007HD), 95.40% and 92.50%; in test [3] (E:T 2, donor 008HD) it was 99.29% and 99.66%. The Percent specific lysis with 697 ALL cells (697-luc2) (E:T 0.5, donor 007HD) was 12.14% and 5.54%; in the test with 697 ALL cells (697-luc2) (E:T 0.5, donor 008HD), 43.47% and 44.29%; in the test on 697 ALL cells (697-luc2) (E:T 1, donor 007HD), 29.28% and 30.44%; in the test on 697 ALL cells (697-luc2) (E:T 1, donor 008HD) it was 77.92% and 81.24%; in the test with 697 ALL cells (697-luc2) (E:T 2, donor 007HD) it was 65.54% and 61.43%; in the test with 697 ALL cells (697-luc2) (E:T 2, donor 008HD) it was 98.09% and 98.25%.

Turning to `Cc1cc2ncnn2c(C)c1Nc1ncc2c(n1)n(C1CCOCC1)c(=O)n2C` [Compound 8, 2-((5,7-dimethyl-[1,2,4]triazolo[1,5-a]pyridin-6-yl)amino)-7-methyl-9-(tetrahydro-2H-pyran-4-yl)-7,9-dihydro-8H-purin-8-one], the “Mean % CD3^−/GFP+ Cells (n = 3)” value was determined as 32.23% in the test with T cells [1] (compound 0.0625 uM) and 70.07% in the test on T cells [1] (compound 1 uM). In addition, the “impact of T cell expansion” value with T cells [2] is on record as “no impact”.

Regarding `Cc1cc2ncnn2c(C)c1Nc1cc2c(cn1)n(C)c(=O)n2C1CCOCC1` [Compound 7, 6-((5,7-dimethyl-[1,2,4]triazolo[1,5-a]pyridin-6-yl)amino)-3-methyl-1-(tetrahydro-2H-pyran-4-yl)-1,3-dihydro-2H-imidazo[4,5-c]pyridin-2-one], the “Mean % CD3^−/GFP+ Cells (n = 3)” value in the test with T cells [1] (compound 0.0625 uM) was 29.90%; in the test with T cells [1] (compound 1 uM) it was 43.43%. In the test on T cells [2], the “impact of T cell expansion” value is given as “no impact”.

As to `Cc1cc2ncnn2cc1Nc1ncc2c(c1C)n(C1CCOCC1)c(=O)n2C` [Compound 9, 3,7-dimethyl-6-((7-methyl-[1,2,4]triazolo[1,5-a]pyridin-6-yl)amino)-1-(tetrahydro-2H-pyran-4-yl)-1,3-dihydro-2H-imidazo[4,5-c]pyridin-2-one], the “Mean % CD3^−/GFP+ Cells (n = 3)” value in the test on T cells [1] (compound 0.0625 uM) is reported as 28.27%; with T cells [1] (compound 1 uM), 27.83%.
